Test results from the Kinase Knowledgebase extract (Sharma et al. 2016).

Key:
CDK2 (human) [1] = biological target: CDK2 (human) (UniProt P24941); assay: Cell-Based Assay
CDK2 (human) [2] = biological target: CDK2 (human) (UniProt P24941); assay: Enzyme Assay

| IC50 (CDK2 (human) [1]; rko) | IC50 (CDK2 (human) [2]) | IC50 (CDK2 (human) [1]; mda-mb-435) | Structure (SMILES) |
| --- | --- | --- | --- |
| ≤ 10 µM |  |  | O=C1Nc2ccc(F)c3c([S+]([O-])CCO)cc(-c4ccc[nH]4)c1c23 (stereo not given) |
|  | ≤ 10 µM |  | O=C1Nc2ccc(F)c3c(OCCO)cc(-c4ccc[nH]4)c1c23 |
|  | ≤ 10 µM |  | O=C1Nc2ccc(F)c3c(N4CCOCC4)cc(-c4ccc[nH]4)c1c23 |
|  | ≤ 10 µM |  | CCOc1cc(-c2ccc[nH]2)c2c3c(ccc(F)c13)NC2=O |
|  | ≤ 10 µM |  | O=C1Nc2ccc(F)c3c(S(=O)(=O)CCO)cc(-c4ccc[nH]4)c1c23 |
| ≤ 10 µM | ≤ 10 µM | ≤ 10 µM | O=C1Nc2ccc(F)c3c(N4CCCC(CO)C4)cc(-c4ccc[nH]4)c1c23 (stereo not given) |
| ≤ 10 µM | ≤ 10 µM | ≤ 10 µM | NCC[S+]([O-])c1cc(-c2ccc[nH]2)c2c3c(ccc(F)c13)NC2=O (stereo not given) |
|  | ≤ 10 µM |  | O=C1Nc2ccc(F)c3c(SCCO)cc(-c4ccc[nH]4)c1c23 |
|  | ≤ 10 µM |  | CC(=O)NCCNc1cc(-c2ccc[nH]2)c2c3c(ccc(F)c13)NC2=O |
|  | ≤ 10 µM |  | NCCS(=O)(=O)c1cc(-c2ccc[nH]2)c2c3c(ccc(F)c13)NC2=O |
|  | ≤ 10 µM |  | CC(C)(N)CNc1cc(-c2ccc[nH]2)c2c3c(ccc(F)c13)NC2=O |
|  | ≤ 10 µM |  | O=C1Nc2ccc(F)c3ccc(-c4ccc[nH]4)c1c23 |
|  | ≤ 10 µM |  | O=C1Nc2ccc(F)c3c(NCCO)cc(-c4ccc[nH]4)c1c23 |
| ≤ 10 µM | ≤ 10 µM | ≤ 10 µM | O=C1Nc2ccc(F)c3c(N4CCCC(O)C4)cc(-c4ccc[nH]4)c1c23 (stereo not given) |
|  | ≤ 10 µM |  | NCCSc1cc(-c2ccc[nH]2)c2c3c(ccc(F)c13)NC2=O |
|  | ≤ 10 µM |  | NCCOc1cc(-c2ccc[nH]2)c2c3c(ccc(F)c13)NC2=O |
|  | ≤ 10 µM |  | Cc1c[nH]c(-c2cc(SCCN)c3c(F)ccc4c3c2C(=O)N4)c1C |
|  | ≤ 10 µM |  | NCCCNc1cc(-c2ccc[nH]2)c2c3c(ccc(F)c13)NC2=O |
|  | ≤ 10 µM |  | O=C1Nc2ccc(F)c3c(N4CCC(O)CC4)cc(-c4ccc[nH]4)c1c23 |
|  | ≤ 10 µM |  | CCc1cc(-c2ccc[nH]2)c2c3c(ccc(F)c13)NC2=O |
|  | ≤ 10 µM |  | COc1cc(-c2ccc[nH]2)c2c3c(ccc(F)c13)NC2=O |
|  | ≤ 10 µM |  | O=C1Nc2ccc(F)c3c(N4CCNC4=O)cc(-c4ccc[nH]4)c1c23 |
|  | ≤ 10 µM |  | O=C1Nc2ccc(F)c3c(OCCCO)cc(-c4ccc[nH]4)c1c23 |
|  | ≤ 10 µM |  | CCN(CC)CCNc1cc(-c2ccc[nH]2)c2c3c(ccc(F)c13)NC2=O |
|  | ≤ 10 µM |  | O=C1Nc2ccc(F)c3c(N4CC[C@@H](O)C4)cc(-c4ccc[nH]4)c1c23 |
|  | ≤ 10 µM |  | Cc1cc(-c2ccc[nH]2)c2c3c(ccc(F)c13)NC2=O |
|  | ≤ 10 µM |  | CCC(C)c1cc(-c2ccc[nH]2)c2c3c(ccc(F)c13)NC2=O (stereo not given) |
|  | ≤ 10 µM |  | O=C1Nc2ccc(F)c3c2C1=C(c1ccc[nH]1)CC3 |

| Structure (SMILES) | IC50 (CDK2 (human) [1]; rko) | IC50 (CDK2 (human) [2]) | IC50 (CDK2 (human) [1]; mda-mb-435) |
| --- | --- | --- | --- |
| O=C1Nc2ccc(F)c3c(N4CCNCC4)cc(-c4ccc[nH]4)c1c23 |  | ≤ 10 µM |  |
